Measurements published in PubChem BioAssay (NCI).
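Assay format: 96-well plates, 48-hour exposure. GI50 marks 50% less growth. TGI is the concentration that stops growth completely.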

How the values were obtained:
Assay in all cases: inhibition of tumour cell growth, NCI panel, 48 h
UACC-257 melanoma = test system: UACC-257 melanoma
RXF 393 renal = test system: RXF 393 renal
IGROV1 ovarian = test system: IGROV1 ovarian
HS 578T breast = test system: HS 578T breast
SK-OV-3 ovarian = test system: SK-OV-3 ovarian
CAKI-1 renal = test system: CAKI-1 renal
SNB-19 CNS = test system: SNB-19 CNS
MDA-MB-435 = test system: MDA-MB-435
EKVX NSCLC = test system: EKVX NSCLC
MALME-3M melanoma = test system: MALME-3M melanoma
M14 melanoma = test system: M14 melanoma
T-47D breast = test system: T-47D breast
K-562 leukemia = test system: K-562 leukemia
HCT-15 colon = test system: HCT-15 colon
OVCAR-4 ovarian = test system: OVCAR-4 ovarian

| SMILES | TGI (UACC-257 melanoma) [µM] | GI50 (RXF 393 renal) [µM] | TGI (RXF 393 renal) [µM] | TGI (IGROV1 ovarian) [µM] | TGI (HS 578T breast) [µM] | TGI (SK-OV-3 ovarian) [µM] | TGI (CAKI-1 renal) [µM] | TGI (SNB-19 CNS) [µM] | GI50 (MDA-MB-435) [µM] | TGI (MDA-MB-435) [µM] | TGI (EKVX NSCLC) [µM] | TGI (MALME-3M melanoma) [µM] | TGI (M14 melanoma) [µM] | TGI (T-47D breast) [µM] | TGI (K-562 leukemia) [µM] | TGI (HCT-15 colon) [µM] | TGI (OVCAR-4 ovarian) [µM] | GI50 (CAKI-1 renal) [µM] | GI50 (EKVX NSCLC) [µM] | GI50 (HCT-15 colon) [µM] |
| --- | --- | --- | --- | --- | --- | --- | --- | --- | --- | --- | --- | --- | --- | --- | --- | --- | --- | --- | --- | --- |
| Cc1ccc2c(=O)cc(-c3sc4ccccc4c3C)[nH]c2n1 | > 100 | 16.8 | 53.1 | 45.7 | 51.7 | 71.4 | 53.3 | > 100 | 4.84 | 17.8 | 88.2 | 41.6 | 51 | 55.8 | > 100 | 73.8 | 54 | – | – | – |
| FC1=C2CCCCCC2SC1(F)F (stereo not drawn) | > 100 | – | 33.2 | > 100 | > 100 | > 100 | > 100 | > 100 | – | 70.7 | > 100 | 52.4 | > 100 | > 100 | 47.8 | > 100 | > 100 | – | – | – |
| CC1=C(C(=O)OC(C)C)C(c2ccccc2C(F)(F)F)C(C(=O)OC(CO[N+](=O)[O-])CO[N+](=O)[O-])=C(C)N1 (stereo not drawn) | – | – | 24.7 | 25.9 | 49.8 | 38.9 | 38.5 | > 100 | – | 27.4 | 70.2 | 33 | 23.9 | > 100 | 41.7 | 93.8 | 28.5 | – | – | – |
| Cc1c(C)c(S(=O)(=O)N(CCCCCON)OCCCN)c(C)c2c1OC(C)(C)CC2 | 29.5 | – | 25.1 | 23.4 | 41.7 | 28.1 | 16 | 28.9 | – | 24.8 | 24.7 | 27.4 | 18.8 | 16.8 | > 40.3 | 28.5 | 21.5 | – | – | – |
| Nc1nc(N)c2nc(CNc3ccc(C(=O)NC(CCCCNC(=O)c4ccccc4C(=O)O)C(=O)O)cc3)cnc2n1 (stereo not drawn) | > 100 | – | > 100 | > 100 | > 100 | > 100 | > 100 | > 100 | – | > 31.6 | > 100 | > 100 | > 100 | > 100 | > 100 | > 100 | > 100 | 0.0237 | 0.036 | 0.00522 |
| O=C(/C=C(\O)c1ccccc1)c1cc(-c2ccccc2)n(-c2ccccc2)n1 | > 100 | – | > 100 | 79.9 | > 100 | > 100 | 54.5 | > 100 | – | > 100 | > 100 | 45.5 | 55.7 | 37.9 | > 100 | > 100 | – | – | – | – |
| C=CCn1c(-c2ccc(-c3cs/c(=N\N=O)n3CC=C)cc2)cs/c1=N\N=O | > 100 | – | 53 | > 100 | > 100 | > 100 | > 100 | > 100 | – | > 100 | > 100 | > 100 | > 100 | > 100 | > 100 | > 100 | 57.4 | – | – | – |
| NC(=O)c1cccc([C@@H]2O[C@H](CO)[C@@H](O)[C@H]2O)c1 | > 100 | – | 34.6 | 85.6 | 74.5 | 35.7 | > 69.1 | 34.3 | – | > 90.3 | > 100 | > 100 | 12.4 | > 66.6 | 41.3 | 11.7 | 19.7 | – | – | – |
| C[C@]12CC[C@H](O)CC1=CC[C@@H]1C2CC[C@]2(C)Nc3c(cnn3-c3ccc(F)cc3)CC12 (stereo partly drawn) | > 100 | – | 7.7 | > 100 | 22.2 | 57.3 | > 100 | > 100 | – | > 100 | > 100 | > 100 | > 100 | > 100 | > 100 | > 100 | 55.9 | – | – | – |
| OC(C/C=N/Nc1ccccc1)(C(F)(F)Cl)C(F)(F)Cl | > 10 | – | > 10 | > 10 | > 10 | > 10 | > 10 | > 10 | – | > 10 | > 10 | > 10 | > 10 | > 10 | > 10 | > 10 | > 10 | – | – | – |
| Cc1nc2c(=O)n3c4c(cccc4c2o1)CCC3 | > 100 | – | > 100 | > 100 | > 100 | > 100 | > 100 | > 100 | – | > 100 | > 100 | > 100 | > 100 | > 100 | > 100 | > 100 | > 100 | – | – | – |
